Patent publication US7960377B2 (priority 2008, dated 2011)
Read-outs that look alike come from different tables or passages of the source.

Experiments:
Assay in all cases: cell-based
[1] = molecular target: human CB2 receptor (Homo sapiens, UniProt P34972); type: cell-based
[2] = molecular target: human CB1 receptor (Homo sapiens, UniProt P21554)
[3] = molecular target: T1, rat CB2 receptor (Rattus norvegicus, UniProt Q9QZN9); type: cell-based
T1 sequence (Q9QZN9 1-360): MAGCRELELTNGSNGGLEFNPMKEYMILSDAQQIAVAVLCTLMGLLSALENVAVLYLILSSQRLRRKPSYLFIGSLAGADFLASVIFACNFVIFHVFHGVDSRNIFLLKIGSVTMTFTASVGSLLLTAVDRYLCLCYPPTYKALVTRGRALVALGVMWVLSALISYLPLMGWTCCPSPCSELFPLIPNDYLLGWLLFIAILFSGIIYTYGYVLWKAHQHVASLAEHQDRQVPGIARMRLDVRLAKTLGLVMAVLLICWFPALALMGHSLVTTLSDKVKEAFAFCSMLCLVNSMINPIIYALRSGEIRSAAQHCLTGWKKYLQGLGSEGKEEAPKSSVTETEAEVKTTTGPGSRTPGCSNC

[4] = change in intracellular cAMP, CHO-K1 hCB2 cells, class AR, read-out: EC50 values for human CB2 receptor
[5] = asterisk at the compound number

Chain of human CB2 receptor (P34972 whole entry): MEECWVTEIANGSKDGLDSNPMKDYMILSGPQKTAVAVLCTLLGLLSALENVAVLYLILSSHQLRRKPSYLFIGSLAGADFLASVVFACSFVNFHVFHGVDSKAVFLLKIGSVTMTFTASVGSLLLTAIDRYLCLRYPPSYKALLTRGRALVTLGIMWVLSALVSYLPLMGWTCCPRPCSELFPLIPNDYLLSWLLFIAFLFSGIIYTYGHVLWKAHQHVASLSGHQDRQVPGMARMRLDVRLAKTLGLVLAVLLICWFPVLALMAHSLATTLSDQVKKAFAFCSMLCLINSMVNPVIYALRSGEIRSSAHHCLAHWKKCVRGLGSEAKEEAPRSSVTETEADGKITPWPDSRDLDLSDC
Chain of human CB1 receptor (P21554 whole entry): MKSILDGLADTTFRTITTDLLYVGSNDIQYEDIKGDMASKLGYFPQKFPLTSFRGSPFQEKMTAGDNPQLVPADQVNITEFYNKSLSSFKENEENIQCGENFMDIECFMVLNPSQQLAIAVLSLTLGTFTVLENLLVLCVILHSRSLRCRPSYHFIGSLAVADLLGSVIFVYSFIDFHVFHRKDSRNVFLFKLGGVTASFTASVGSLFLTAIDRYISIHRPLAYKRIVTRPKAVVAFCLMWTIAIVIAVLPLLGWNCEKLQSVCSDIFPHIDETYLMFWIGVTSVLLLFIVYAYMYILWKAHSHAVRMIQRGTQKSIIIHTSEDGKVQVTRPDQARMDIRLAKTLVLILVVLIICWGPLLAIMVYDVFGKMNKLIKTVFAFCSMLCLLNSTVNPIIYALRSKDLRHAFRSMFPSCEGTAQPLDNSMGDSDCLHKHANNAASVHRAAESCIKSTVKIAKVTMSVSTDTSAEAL

Row | SMILES | EC50 [2] | EC50 [3] | further results
1 | CCN(CC)C(=O)c1cnc2c(c1)N(S(=O)(=O)c1cccnc1)CCO2 [Example 18, N,N-diethyl-1-(pyridin-3-ylsulfonyl)-2,3-dihydro-1H-pyrido[2,3-b][1,4]oxazine-7-carboxamide] | > 30 µM | – | EC50 [1, 4]: > 30 µM
2 | COCCCNC(=O)c1cnc2c(c1)N(S(=O)(=O)c1cccnc1)CCO2 [Example 19, N-(3-methoxypropyl)-1-(pyridin-3-ylsulfonyl)-2,3-dihydro-1H-pyrido[2,3-b][1,4]oxazine-7-carboxamide] | > 30 µM | – | EC50 [1, 4]: > 30 µM
3 | Cn1cnc(S(=O)(=O)N2CCOc3ncc(C(=O)NC(C)(C)C)cc32)c1 [Example 30, N-tert-butyl-1-(1-methyl-1H-imidazol-4-ylsulfonyl)-2,3-dihydro-1H-pyrido-[2,3-b][1,4]oxazine-7-carboxamide] | > 30 µM | – | EC50 [1, 4]: > 30 µM
4 | Cn1cnc(S(=O)(=O)N2CCOc3ncc(C(=O)NC4CCCC4)cc32)c1 [Example 31, N-cyclopentyl-1-(1-methyl-1H-imidazol-4-ylsulfonyl)-2,3-dihydro-1H-pyrido[2,3-b][1,4] oxazine-7-carboxamide] | > 30 µM | – | EC50 [1, 4]: > 30 µM
5 | COc1ccc(S(=O)(=O)N2CCOc3ncc(C(=O)NC(C)(C)CO)cc32)c(F)c1 [Example 103, 1-(2-fluoro-4-methoxyphenylsulfonyl)-N-(1-hydroxy-2-methylpropan-2-yl)-2,3-dihydro-1H-pyrido[2,3-b][1,4]oxazine-7-carboxamide] | > 30 µM | ≤ 0.03 µM | –
6 | COc1ccc(S(=O)(=O)N2CCOc3ncc(C(=O)NCC(C)(C)O)cc32)cc1Cl [Example 104] | > 30 µM | ≤ 0.03 µM | –
7 | CC(C)(CN1CCOCC1)NC(=O)c1cnc2c(c1)N(S(=O)(=O)c1ccc(Cl)cc1F)CCO2 [Example 113, 1-(4-chloro-2-fluorophenylsulfonyl)-N-(2-methyl-1-morpholinopropan-2-yl)-2,3-dihydro-1H-pyrido[2,3-b][1,4]oxazine-7-carboxamide] | > 30 µM | ≤ 0.03 µM | –
8 | O=C(N[C@@H]1CCC[C@H]1O)c1cnc2c(c1)N(S(=O)(=O)c1ccc(Cl)c(Cl)c1)CCO2 [Example 133, 1-(3,4-dichlorophenyl-sulfonyl)-N-((1R,2R)-2-hydroxycyclopentyl)-2,3-dihydro-1H-pyrido[2,3-b][1,4]oxazine-7-carboxamide] | > 30 µM | ≤ 0.03 µM | –
9 | O=C(NC1CCC1)c1cnc2c(c1)N(S(=O)(=O)c1ccc(Cl)c(Cl)c1)CCO2 [Example 137, N-cyclobutyl-1-(3,4-dichlorophenylsulfonyl)-2,3-dihydro-1H-pyrido[2,3-b][1,4]oxazine-7-carboxamide] | > 30 µM | ≤ 0.03 µM | –
10 | O=C(NCc1ccccc1)c1cnc2c(c1)N(S(=O)(=O)c1ccc(Cl)c(Cl)c1)CCO2 [Example 138, N-benzyl-1-(3,4-dichlorophenylsulfonyl)-2,3-dihydro-1H-pyrido[2,3-b][1,4]oxazine-7-carboxamide] | > 30 µM | ≤ 0.03 µM | –
11 | CCOC(=O)C1(NC(=O)c2cnc3c(c2)N(S(=O)(=O)c2ccc(Cl)c(Cl)c2)CCO3)CCC1 [Example 139, ethyl 1-(1-(3,4-dichloro-phenylsulfonyl)-2,3-dihydro-1H-pyrido[2,3-b][1,4]oxazine-7-carboxamido)cyclobutane-carboxylate] | > 30 µM | ≤ 0.03 µM | –
12 | CC(C)(C)NC(=O)c1cnc2c(c1)N(S(=O)(=O)N1CCOCC1)CCO2 [Example 140, N-tert-butyl-1-(morpholinosulfonyl)-2,3-dihydro-1H-pyrido[2,3-b][1,4]oxazine-7-carboxamide] | > 30 µM | ≤ 0.03 µM | –
13 | CC(C)(CO)NC(=O)c1cnc2c(c1)N(S(=O)(=O)N1CCCCC1)CCO2 [Example 146, N-(1-hydroxy-2-methylpropan-2-yl)-1-(piperidin-1-ylsulfonyl)-2,3-dihydro-1H-pyrido[2,3-b][1,4]oxazine-7-carboxamide] | > 30 µM | ≤ 0.03 µM | –
14 | CC(C)(C)NC(=O)c1cnc2c(c1)N(S(=O)(=O)N1CCC(F)CC1)CCO2 [Example 166, N-tert-butyl-1-(4-fluoropiperidin-1-ylsulfonyl)-2,3-dihydro-1H-pyrido[2,3-b][1,4]oxazine-7-carboxamide] | > 30 µM | ≤ 0.03 µM | –
15 | CC(C)(CO)CNC(=O)c1cnc2c(c1)N(S(=O)(=O)N1CCC(F)CC1)CCO2 [Example 169, 1-(4-fluoropiperidin-1-ylsulfonyl)-N-(3-hydroxy-2,2-dimethylpropyl)-2,3-dihydro-1H-pyrido[2,3-b][1,4]oxazine-7-carboxamide] | > 30 µM | ≤ 0.03 µM | –
16 | CC1CCN(S(=O)(=O)N2CCOc3ncc(C(=O)NC(C)(C)C)cc32)CC1 [Example 170, N-tert-butyl-1-(4-methylpiperidin-1-ylsulfonyl)-2,3-dihydro-1H-pyrido[2,3-b][1,4]oxazine-7-carboxamide] | > 30 µM | ≤ 0.03 µM | –
17 | CCC(C)(C)NC(=O)c1cnc2c(c1)N(S(=O)(=O)N1CCC(C)CC1)CCO2 [Example 171, 1-(4-methylpiperidin-1-ylsulfonyl)-N-tert-pentyl-2,3-dihydro-1H-pyrido[2,3-b][1,4]oxazine-7-carboxamide] | > 30 µM | ≤ 0.03 µM | –
18 | CC1CCN(S(=O)(=O)N2CCOc3ncc(C(=O)NC(C)(C)CO)cc32)CC1 [Example 172, N-(1-hydroxy-2-methylpropan-2-yl)-1-(4-methylpiperidin-1-ylsulfonyl)-2,3-dihydro-1H-pyrido[2,3-b][1,4]oxazine-7-carboxamide] | > 30 µM | ≤ 0.03 µM | –
19 | CC(C)(C)NC(=O)c1cnc2c(c1)N(S(=O)(=O)NCc1ccccc1)CCO2 [Example 178, 1-(N-benzylsulfamoyl)-N-tert-butyl-2,3-dihydro-1H-pyrido[2,3-b][1,4]oxazine-7-carboxamide] | > 30 µM | ≤ 0.03 µM | –
20 | CC(C)CNS(=O)(=O)N1CCOc2ncc(C(=O)NC(C)(C)C)cc21 [Example 180, N-tert-butyl-1-(N-isobutylsulfamoyl)-2,3-dihydro-1H-pyrido[2,3-b][1,4]oxazine-7-carboxamide] | > 30 µM | ≤ 0.03 µM | –
21 | CC(C)CNS(=O)(=O)N1CCOc2ncc(C(=O)NCC(C)(C)CO)cc21 [Example 182, N-(3-hydroxy-2,2-dimethylpropyl)-1-(N-isobutylsulfamoyl)-2,3-dihydro-1H-pyrido[2,3-b][1,4]oxazine-7-carboxamide] | > 30 µM | ≤ 0.03 µM | –
22 | CC(C)(CO)NC(=O)c1cnc2c(c1)N(S(=O)(=O)N1CC(F)(F)C1)CCO2 [Example 195, 1-(3,3-difluoroazetidin-1-ylsulfonyl)-N-(1-hydroxy-2-methylpropan-2-yl)-2,3-dihydro-1H-pyrido[2,3-b][1,4]oxazine-7-carboxamide] | – | – | EC50 [1]: > 30 µM
23 | C[C@@H]1CCC[C@H](C)N1C(=O)c1cnc2c(c1)N(S(=O)(=O)c1ccc(C(F)(F)F)cc1)CCO2 [Example 197, (cis-2,6-dimethylpiperidin-1-yl)(1-(4-(trifluoromethyl)phenylsulf-onyl)-2,3-dihydro-1H-pyrido[2,3-b][1,4]oxazin-7-yl)methanone] | > 30 µM | ≤ 0.03 µM | –
24 | O=C(NC1(CO)CCC1)c1cnc2c(c1)N(S(=O)(=O)c1ccc(Cl)c(Cl)c1)CCO2 [Example 209, 1-(3,4-dichlorophenylsulfonyl)-N-(1-(hydroxymethyl)cyclobutyl)-2,3-dihydro-1H-pyrido[2,3-b][1,4]oxazine-7-carboxamide] | > 30 µM | ≤ 0.03 µM | –
25 | CCc1noc(-c2cnc3c(c2)N(S(=O)(=O)c2ccccc2)CCO3)n1 [Example 210, 7-(3-ethyl-1,2,4-oxadiazol-5-yl)-1-(phenylsulfonyl)-2,3-dihydro-1H-pyrido[2,3-b][1,4]oxazine] | > 30 µM | ≤ 0.03 µM | –
26 | O=S(=O)(c1ccccc1)N1CCOc2ncc(-c3nnc(-c4ccccc4)o3)cc21 [Example 211, 7-(5-phenyl-1,3,4-oxadiazol-2-yl)-1-(phenylsulfonyl)-2,3-dihydro-1H-pyrido[2,3-b][1,4]oxazine] | > 30 µM | – | inverse agonist mark, rat CB2 receptor [3, 5]: 181, 188, 189, 190, 195, 200, 201, 202, 204, 211*, 214*, 220, 221,
27 | O=C(NC1CCCC1)c1noc(-c2cnc3c(c2)N(S(=O)(=O)c2ccc(F)cc2)CCO3)n1 [Example 213, N-cyclopentyl-5-(1-(4-fluorophenylsulfonyl)-2,3-dihydro-1H-pyrido[2,3-b][1,4]oxazin-7-yl)-1,2,4-oxadiazole-3-carboxamide] | – | – | inverse agonist mark, human CB2 receptor [1, 5]: 175, 178, 179, 181, 198, 204, 205, 213*, 214, 215, 216, 219, 220,
28 | CC1(C)N=C(c2cnc3c(c2)N(S(=O)(=O)c2ccc(C(F)(F)F)cc2)CCO3)NO1 [Example 223, 7-(5,5-dimethyl-2,5-dihydro-1,2,4-oxadiazol-3-yl)-1-(4-(trifluoromethyl)phenylsulfonyl)-2,3-dihydro-1H-pyrido[2,3-b][1,4]oxazine] | > 30 µM | ≤ 0.03 µM | –
29 | CC1(C)CN=C(c2cnc3c(c2)N(S(=O)(=O)c2ccc(C(F)(F)F)cc2)CCO3)NC1 [Example 225, 7-(5,5-dimethyl-1,4,5,6-tetrahydropyrimidin-2-yl)-1-(4-(trifluoromethyl)phenylsulfonyl)-2,3-dihydro-1H-pyrido[2,3-b][1,4]oxazine] | > 30 µM | > 30 µM | –
30 | O=S(=O)(c1ccc(C(F)(F)F)cc1)N1CCOc2ncc(-c3ncc(-c4ccccc4)[nH]3)cc21 [Example 226, 7-(5-phenyl-1H-imidazol-2-yl)-1-(4-(trifluoromethyl)phenylsulfonyl)-2,3-dihydro-1H-pyrido[2,3-b][1,4]oxazine] | – | – | EC50 [1, 4]: > 30 µM
